Compound `CC(=O)Nc1ccc(Oc2nc3ccccc3o2)cc1` displayed a melting point of 164 to 166 °C.
In the case of `Cc1ccccc1-n1c(Cl)nc2ccccc2c1=O` it was 298 to 300 °C.
In turn, `CNS(=O)(=O)c1cc(C(=O)O)ccc1F` returned a melting point of 209 to 211 °C.
With `O=c1[nH]cnc2ccc(I)cc12` the figure was 272 to 274 °C; with `CC(=O)NC(Cc1c[nH]cn1)C(N)=O` (stereo not given), 241 to 243 °C.
In turn, `Nc1ccc(-n2ccnc2)cc1` displayed a melting point of 143 to 147 °C.
The compound `CC(=O)c1ccccc1NC(=O)CCCCl` came in with a melting point of 55 to 57 °C.
As for `Cc1c(N)cccc1C#N`, the melting point was in the range of 90 to 92 °C.
The compound `O=Cc1cc(Br)ccc1OCc1ccccc1` yielded a melting point of 61 to 63 °C.
In the case of `Cc1ccc(S(C)(=O)=O)c(N)c1` it was 103 to 105 °C; in that of `O=S(=O)(c1ccc(Cl)nc1)N1CCCC1`, 149 to 151 °C.
With `Cn1c(-c2cccc(O)c2)nc2ccccc21`, the melting point was 174 to 176 °C.
For `NC(=O)c1cc(N)cc(C(N)=O)c1`, the melting point lay within 246 to 248 °C.
`O=C(O)CNC(=O)c1cccs1`: the melting point is 169 to 171 °C.
Regarding `CS(=O)(=O)NCc1ccc(N)cc1`, the melting point fell in the range of 146 to 148 °C.
`COc1ccc2[nH]c(C(=O)O)cc2c1OC(F)F` gave a melting point of 231 to 233 °C.
Consider `O=[N+]([O-])c1ccc(O)cc1Cl`, for which the melting point fell in the range of 115 to 117 °C.
Consider `COC(=O)c1cc(Cl)cc(Cl)c1N`, for which the melting point lay within 65 to 67 °C.
In the case of `Oc1ccc(-c2noc(C3CCCO3)n2)cc1` (stereo not given) it was 96 to 98 °C; in that of `COC(=O)c1cccc(N)c1O`, 84 to 86 °C.
The compound `Cn1nc(C(F)(F)F)c(C(=O)O)c1C(F)(F)Cl` registered a melting point of 119 to 121 °C.
`NCc1cccc(CS(N)(=O)=O)c1` returned a melting point of 142 to 144 °C.
On to `Cc1c(F)cc(C(=O)O)cc1[N+](=O)[O-]`, for which the melting point lay in the range of 168 to 170 °C.
With `O=C(O)c1ccc(F)nc1` the figure was 144 to 148 °C.
Turning to `O=C1NC(=O)C(=O)C(=O)N1`, the melting point is 255 to 257 °C.
Compound `Cc1ccc(NS(=O)(=O)c2cc(C(=O)O)ccc2C)cc1` showed a melting point of 55 to 57 °C.
On to `Nc1ccc(Oc2ccncc2)c(Cl)c1`, for which the melting point was in the range of 129 to 131 °C.
On to `CCC(=O)N(C)c1ccccc1C(=O)O`, for which the melting point is 193 to 195 °C.
As to `CN(CC(=O)O)c1nc2ccccc2s1`, the melting point lay within 165 to 167 °C.
In the case of `CN(C)CCCNS(=O)(=O)c1cccc(C#N)c1` it was 101 to 103 °C; in that of `C=CC(=O)Nc1ccc(OCC)c(OC)c1`, 117 to 119 °C; in that of `CS(=O)(=O)Cc1c(C(=O)O)oc2ccccc12`, 218 to 220 °C.
In the case of `CC(CN1CCOCC1)C(=O)NN` (stereo not given) it was 86 to 88 °C.
`CNC(=O)c1cccc(O)c1` had a melting point of 108 to 110 °C.
Turning to `CCc1ccc(C(C)=CC(=O)O)cc1`, the melting point was 104 to 106 °C.
In the case of `O=c1[nH]c2ccsc2c(=O)o1`, the melting point lay in the range of 218 to 220 °C.
`CNC(C)c1ccc(-n2cncn2)cc1` (stereo not given) gave a melting point of 44 to 48 °C.
Compound `Nc1cc(-c2cccs2)nn1CCO` yielded a melting point of 155 to 157 °C.
As for `CCN(CC)S(=O)(=O)c1ccc(NC)c(N)c1`, the melting point fell in the range of 119 to 121 °C.
As for `CC(C)(C)OC(=O)c1ccc(N)cc1`, the melting point was in the range of 99 to 101 °C.
`CCOCCCNc1nnc(S)s1` returned a melting point of 63 to 65 °C.
With `CN(C)C(=O)CN1CCNCC1` the figure was 35 to 37 °C.
With `CS(=O)(=O)c1cccc(C(N)c2ccc(Cl)cc2)c1` (stereo not given) the figure was 94 to 96 °C; with `O=C(O)CN1Cc2ccccc2C1=O`, 217 to 219 °C.
Compound `Oc1ccc2c(c1)CNCC2` showed a melting point of 194 to 196 °C.
Take `Cc1cc(C)n(Cc2ccc(C(=O)O)cc2)n1`: the melting point lay in the range of 179 to 181 °C.
For the compound `CN(C)S(=O)(=O)c1ccc(F)c(C(=O)O)c1`, the melting point was in the range of 163 to 165 °C.
`O=C(O)c1cc(-c2ccc(F)cc2)nc2ccccc12` displayed a melting point of 193 to 197 °C.
`Cc1cccc2c1CCC2=O` registered a melting point of 94 to 96 °C.
`CC1CC(C)CN(S(=O)(=O)c2ccc(NN)nc2)C1` (stereo not given) displayed a melting point of 217 to 219 °C.
Regarding `O=C(O)c1ccc2c(c1)S(=O)(=O)N(CC1CCCO1)C2=O` (stereo not given), the melting point was in the range of 159 to 161 °C.
The compound `CNC(C(=O)O)c1ccccc1C(F)(F)F` (stereo not given) displayed a melting point of 290 to 292 °C.
In the case of `CC1(C)NCCNC1=O` it was 113 to 115 °C.
`COC(=O)C1CN(CC#N)CCO1` (stereo not given) gave a melting point of 79 to 81 °C.
In turn, `CNS(=O)(=O)C1CCNCC1` registered a melting point of 168 to 170 °C.
As for `Cn1ncc2c1CCCC2=O`, the melting point lay in the range of 89 to 91 °C.
Compound `CN1CC(N)C(=O)N1` (stereo not given) registered a melting point of 55 to 57 °C.
As to `NNC(=S)NCC1CCC1`, the melting point was 104 to 106 °C.
`O=C(CCl)Nc1ccnn1Cc1ccccc1`: the melting point is 99 to 101 °C.
`CC=C(C)C=CC(=O)O` displayed a melting point of 89 to 91 °C.
Turning to `NC(Cc1ccco1)C(=O)O` (stereo not given), the melting point lay within 179 to 181 °C.
Turning to `O=C(O)C1(c2ccccc2F)CC1`, the melting point lay in the range of 106 to 108 °C.
On to `Cc1ccc(F)cc1-c1nc2ccccc2[nH]1`, for which the melting point is 223 to 225 °C.
`O=C(O)CCC(=O)Nc1nccs1` had a melting point of 257 to 259 °C.
Compound `Clc1ccc2[nH]c3c(c2c1)CNCC3` showed a melting point of 226 to 228 °C.
With `O=C(O)CNC(=O)NC1CCCCC1` the figure was 162 to 164 °C; with `CC(=O)N1CCCc2ccc(S(=O)(=O)Cl)cc21`, 93 to 95 °C; with `Nc1ccc(Oc2ccncc2)cc1`, 160 to 162 °C.
With `Cc1nc2c(cnn2C(C)C)cc1C(=O)O` the figure was 166 to 168 °C; with `CC(C)(C)NCC(N)=O`, 49 to 51 °C; with `Cc1ccc(CNCc2ccc(C)n2C)n1C`, 61 to 63 °C.
As to `Cc1nn(C)c(C)c1CC(N)=O`, the melting point is 175 to 177 °C.
On to `O=C(CCl)Nc1ccc(Oc2cccc(Cl)c2)cc1`, for which the melting point lay in the range of 117 to 119 °C.
`Cc1nccc(C(=O)O)n1` returned a melting point of 206 to 208 °C.
In turn, `NC(=O)CCC1CCNCC1` gave a melting point of 64 to 66 °C.
With `Cn1cc(Br)c2cc[nH]c(=O)c21` the figure was 195 to 197 °C; with `COC(=O)c1cc(Cl)nc2ccccc12`, 87 to 89 °C; with `O=C(NCCN1CCOCC1)C1CCNCC1`, 127 to 129 °C.
`CCOc1cc(C(=O)O)c([N+](=O)[O-])cc1OC`: the melting point lay within 213 to 215 °C.
Take `Nc1ccc(S(=O)(=O)NC2CC2)cn1`: the melting point fell in the range of 169 to 171 °C.
`Cc1nn(-c2ccccc2)c(C)c1CN`: the melting point fell in the range of 77 to 79 °C.
`CCOC(=O)Nc1ccc(Br)cc1` registered a melting point of 79 to 81 °C.
`CCC1(CC)CC(=O)NC1=O`: the melting point was in the range of 82 to 84 °C.
`Nc1ccc(-c2nc3ccccc3s2)cc1` registered a melting point of 149 to 151 °C.
`Nc1cc(-c2ccc(Cl)cc2)nn1-c1ccccc1` gave a melting point of 191 to 193 °C.
`O=Cc1ccc(OCc2ccccn2)cc1` gave a melting point of 88 to 90 °C.
In turn, `O=C(CO)c1ccc(Cl)cc1` showed a melting point of 124 to 126 °C.
With `CC(C)CCNC(N)=S`, the melting point was in the range of 93 to 95 °C.
In the case of `O=C(O)c1cc(Br)c(S(=O)(=O)Cl)c(Br)c1` it was 199 to 201 °C.
Compound `Oc1nnc(-c2ccccc2)o1` displayed a melting point of 138 to 140 °C.
Compound `CC(C)c1noc(-c2ccc(Br)cc2)n1` showed a melting point of 29 to 31 °C.
The compound `O=C(O)c1ccc(CSc2ccc(Cl)cc2)cc1` displayed a melting point of 182 to 184 °C.
`Cc1n[nH]c(C)c1S(=O)(=O)N1CCCCC1` returned a melting point of 72 to 73 °C.
In turn, `O=c1[nH]c(-c2ccccc2Br)cs1` showed a melting point of 169 to 171 °C.
Consider `Cc1ccc(N2N=C(Br)CC2C(=O)O)cc1` (stereo not given), for which the melting point was in the range of 79 to 81 °C.
On to `O=C(CCl)NCC1(c2ccccc2)CCC1`, for which the melting point was 95 to 97 °C.
In turn, `Nc1cccc(S(=O)(=O)Nc2cccc(Cl)c2)c1` returned a melting point of 107 to 109 °C.
As for `Nc1ccc(C(=O)NC2CC2)c(Cl)c1`, the melting point lay in the range of 158 to 160 °C.
As to `Clc1cnc(N2CCNCC2)c(Cl)c1`, the melting point was 59 to 61 °C.
Compound `COc1ccccc1N(CCC#N)C(=O)C(C)Cl` (stereo not given) registered a melting point of 71 to 73 °C.
In turn, `COc1ccc(-c2nnc(N)s2)cc1` gave a melting point of 185 to 187 °C.
The compound `Nc1cnccc1O` yielded a melting point of 156 to 158 °C.
For the compound `CC(C)(C)c1ccc(Cn2nccc2N)cc1`, the melting point was less than 17 °C.
For `NC(=S)Cc1cn2ccccc2n1`, the melting point was 144 to 146 °C.
The compound `CC(C)c1ccc(S(=O)(=O)NCCC(=O)O)cc1` yielded a melting point of 195 to 205 °C.
Compound `CC1(O)CN(C(=O)OC(C)(C)C)C1` showed a melting point of 89 to 91 °C.
On to `O=C(O)c1occc1Br`, for which the melting point lay within 155 to 157 °C.
For `COc1ccc(Br)cc1C(=O)C(=O)O`, the melting point lay within 137 to 139 °C.
The compound `O=S(=O)(c1ccc(Cl)c(Cl)c1)N1CCNCC1` gave a melting point of 125 to 127 °C.
With `N#CC1(C(=O)O)CCOCC1` the figure was 162 to 164 °C; with `O=C(O)CCN1C(=O)COc2cc(Br)ccc21`, 153 to 155 °C.
In the case of `Cc1nn(C(C)(C)C)c(C)c1C(=O)O` it was 158 to 160 °C.
The compound `O=C1CCSc2c(Cl)cccc21` registered a melting point of 91 to 93 °C.
`Cc1nc2ccccc2c2c(N)c3ccccc3n12` came in with a melting point of 200 to 202 °C.
`CCn1nc(C)c(S(=O)(=O)Cl)c1C` registered a melting point of 34 to 36 °C.
`NC(=NO)c1ccc(Br)s1`: the melting point is 124 to 126 °C.
The compound `Cc1cc(N)ccc1C(=O)O` yielded a melting point of 154 to 156 °C.
`CCCNc1cc(F)ccc1[N+](=O)[O-]` displayed a melting point of 61 to 63 °C.
Compound `NCc1ccc(-c2ccc3c(c2)CCCO3)cc1` gave a melting point of 89 to 91 °C.
`Nc1ccc(-c2ccccc2)nn1`: the melting point was 145 to 147 °C.
Turning to `CCOc1ccc(C(=O)O)cc1OC`, the melting point was 198 to 202 °C.
In turn, `CC(=O)c1c[nH]c(C(=O)C(Cl)(Cl)Cl)c1` registered a melting point of 190 to 192 °C.
In the case of `C=C(CC(=O)OC)C(=O)O` it was 67 to 69 °C.
Turning to `Cc1ccc(CNC(=O)n2ccnc2)cc1`, the melting point lay within 132 to 134 °C.
In the case of `CC(C)CCc1ccc(S(=O)(=O)Cl)cc1` it was 35 to 39 °C.

For the origin of these results see a melting point compilation (Tetko et al.).
